In data set [1] the test system is mammary gland. In words: Acute oral exposure of ovariectomized mice: nuclear γH2AX in mammary gland. The following applies: 4 days, E2 250, BP3 3,000, PP 10,000 μg/kg/day. The format is in vivo, mouse. The text has this:
(§1) Animal Treatment: Forty mature female mice (8 weeks old) BALB/c mice were purchased from Jackson Laboratory and housed in temperature-controlled facilities with a 12-hour alternating day/night light cycle and fed LabChow 5058 ad libitum. All procedures were in accordance with the national guidelines for the care and use of animals and approved by the University of Massachusetts Amherst's Institutional Animal Care and Use Committee.
(§2) The mice were ovariectomized before treatment. Briefly, each mouse was anaesthetized with a mix of isofluorance and oxygen. The flanks were shaved, sterilized with betadine and cleaned with alcohol. An incision was made to the skin on the right flank. The underlying muscle layer was nicked to reveal a small hole through which ovary was pulled out by grasping the periovarian fat. A Serrifin clamp was used to hold the ovary. After making sure the blood vessels were constricted to prevent […], the ovary was cut from the uterine horn. The periovarian fat was restored into the peritoneum. The peritoneum was closed with one or two stiches and the skin was closed with 9 mm wound clips. The procedure was repeated on the contralateral side. The mouse was monitored for a week post-procedure and wound clips were removed after 10 days. After 1 week of recovery, the mice began an acute oral treatment via pipette with one of three different compounds prepared in tocopherol-stripped corn oil for 4 days. Each mouse was administered 1 μL of oil per gram of body weight to deliver 250 μg/kg/d E2, 3000 μg/kg/d BP3 or 10000 μg/kg/d PP or vehicle control. […]
(§3) Immunostaining of mouse mammary gland: Freshly cut […] paraffin-embedded sections were deparaffinized/rehydrated with 100% xylenes 3 times for 5 min each, 2 times with 100% ethanol for 5 min each, 95% ethanol for 3 min and 70% ethanol for 3 min. […] Analysis of S9.6 intensity per nucleus or foci per nucleus were calculated using Nikon analysis software, where DAPI was used as a mask for the nucleus. […] Positive cells were counted using ImageJ software. 1200 cells were counted to determine percent Ki67 positive.

Data set [2] concerns mammary epithelium. In words: Acute oral exposure of ovariectomized mice: nuclear S9.6 staining of mammary epithelium. The format is in vivo, mouse. The following applies: 4 days, E2 250, BP3 3,000, PP 10,000 μg/kg/day.
Text: as §1, §2, §3

Data set [3] relates to mammary epithelium. In words: Acute oral exposure of ovariectomized mice: Ki67 proliferation of luminal epithelial cells. Conditions: 4 days, E2 250, BP3 3,000, PP 10,000 μg/kg/day. The format is in vivo, mouse.
Text: as §1, §2, §3

The subject of data set [4] is T47D cells. The experiment in a line: Cell proliferation assay (alamar blue) in T47D cells. The format is cell-based, human. The protocol:
Cell Proliferation Assay: T47D cells grown in clearing media for 72 h was plated as 100 μl of cells suspension having 5000 or 10000 cells per well on five 96 well plates (one for each day). The 96 well plate had 12 cell-free wells for a blank and 7 wells per treatment on each plate. After 24 h, 100 μl of E2, BP3 or PP containing media was added to appropriate wells on each plate to reach the desired final concentration in each well. All plates were maintained in a 37° C., 5% CO2 incubator until media was exchanged, on one plate per day, for 10% Alamar Blue in plating media. Plates were read at the same time each day at 4 hr and 8 hr after media exchange on a BioTek Synergy 2 plate reader (Winooski, VT) at 570 nm and 600 nm. Percent alamar blue reduction was calculated as per the following equation on the AlamarBlue protocol: […]

In data set [5] the test system is T47D cells. In words: γH2AX immunostaining (DNA damage) in T47D cells. The format is cell-based, human. Conditions: T47D, 24 h; E2 10 or 100 nM, BP3 1 or 5 μM, PP 1 or 5 μM; vs control. How it is done:
Immunostaining: Cells were grown in clearing media for 48 h and plated on 20 mm coverslip in 12 well plates with a density of 2×10^5 cells/well. […] Cells were washed with 1×PBS, blocked in 2% BSA/PBS with 0.1% Triton-X 100 for 1 hr at room temperature (RT), incubated overnight with γH2AX antibody (Cell Signaling #9718 S) or ERα antibody (Santa Cruz Biotechnology #sc-8002) at 4° C. and 1 hour with secondary antibody. S9.6: Cells were fixed in ice-cold 100% methanol for 10 min at −20° C., permeabilized in 100% acetone for 1 min at RT, blocked for 30 min in saline sodium citrate pH 7 (SSC, 4×), 3% BSA, 0.1% Triton-X and incubated with S9.6 (Kerafast #ENH001) 2 hr at RT followed by 1 h with secondary antibody. If indicated, slides were treated with RNase H (NEB #M0297L) for 4 hr at 37° C. prior to incubation with primary antibody. Stained cells were mounted with Vectashield mounting medium containing DAPI (Vector Laboratories #H-1200). Slides were imaged at 60× (immersion oil) with Nikon A1 Spectral Confocal microscope. Analysis of γH2AX and S9.6 intensity per nucleus or foci per nucleus was calculated using Nikon analysis software, where DAPI was used as a mask for the nucleus.

The subject of data set [6] is Areg and Pgr. The experiment in a line: Acute oral exposure of ovariectomized mice: Areg and Pgr expression in mammary gland. The format is in vivo, mouse. Conditions: 4 days, E2 250, BP3 3,000, PP 10,000 μg/kg/day. How it is done: (§4) RT-qPCR: RNA from T47D cells, MCF-7 Cells or flash-frozen 4th mammary gland was isolated with TRIzol (Thermofisher Scientific #15596018) and Direct-zol RNA MiniPrep Plus (Zymo Research #R2072). cDNA was prepared with Protoscript II First Strand cDNA Synthesis Kit (New England Biolabs #E6560S) and qPCR for TFF1, progesterone receptor (PGR) and Amphiregulin (AREG) was performed on CFX96 Real-Time System thermocycler (Bio-Rad) using primers in Table 1.
as §1, §2

Data set [7] has as its system TFF1. The experiment in a line: RT-qPCR of estrogen-responsive gene TFF1 in T47D cells. The following applies: T47D; for expression of TFF1 vs control: 5 μM. The format is cell-based, human. The protocol:
as §4

SMILES strings stand for the structures. “Also recorded” adds a separate entry of the source.

For `COc1ccc(C(=O)c2ccccc2)c(O)c1` [BP3, 2-Hydroxy-4-methoxybenzophenone], in data set [1], the “nuclear γH2AX intensity in the mammary gland vs vehicle control” value (“nuclear γH2AX intensity … vs vehicle control” for short) is “significantly higher; also recorded: increases”. In addition, in data set [2], the “nuclear S9.6 staining in mammary epithelium over control treated animals” value was 2.5 fold. Further, the “proliferation (Ki67) of mammary luminal epithelial cells” value (shortened to “proliferation (Ki67)”) in data set [3] is “neither BP3 nor PP elicited significant responses”. Further, the “Slope of growth curve” value in data set [4] (5 μM) amounted to 0.0202; in data set [4] (50 μM), 0.01581. Also, in data set [4] (5 or 50 μM), the proliferation entry was “marginal effect”. Further, the “nuclear γH2AX intensity” value in data set [5] is on record as “increased γH2AX intensity”. Further, the “transcriptional activation of ER-target genes (Areg and Pgr)” value (from here on “transcriptional activation”) in data set [6] is recorded as “neither BP3 nor PP elicited significant responses”. Also, the “expression of TFF1 vs control” value in data set [7] is reported as “did not differ from the control”.

Consider `C[C@]12CC[C@@H]3c4ccc(O)cc4CC[C@H]3[C@@H]1CC[C@@H]2O` [E2, 17β-estradiol, reference compound], for which the “nuclear γH2AX intensity … vs vehicle control” value in data set [1] is reported as “significantly higher”. Besides, the “nuclear S9.6 staining in mammary epithelium over control treated animals” value in data set [2] is 3.8 fold. For the same molecule, in data set [3], the “proliferation (Ki67)” value was “stimulated”. Moreover, the “Slope of growth curve” value in data set [4] (0.5 nM) was determined as 0.08495. In addition, in data set [5], the “nuclear γH2AX intensity” value is “dose-dependent increase”. In addition, the “transcriptional activation” value in data set [6] is recorded as “stimulated”. For the same molecule, in data set [7] (10 nM), the “increase in expression of TFF1” value is on record as 13.1 fold.

Regarding `CCCOC(=O)c1ccc(O)cc1` [PP, propyl parahydroxybenzoate], in data set [1], the “nuclear γH2AX intensity … vs vehicle control” value was “increases”. For the same molecule, the “nuclear S9.6 staining in mammary epithelium over control treated animals” value in data set [2] was 3.8 fold. Also, the “proliferation (Ki67)” value in data set [3] is recorded as “neither BP3 nor PP elicited significant responses”. Also, the “Slope of growth curve” value in data set [4] (1 μM) was found to be 0.01856. In data set [4] (10 μM), the “Slope of growth curve” value is given as 0.06387 and the proliferation entry is “stimulates significant proliferation”. Also, the “nuclear γH2AX intensity” value in data set [5] is reported as “significantly higher γH2AX intensity”. Besides, the “transcriptional activation” value in data set [6] is “neither BP3 nor PP elicited significant responses”. Further, the “expression of TFF1 vs control” value in data set [7] is “did not differ from the control”.
